Measured values from US20120108501A1, “Protease Inhibitors” (priority 2009, published 2012).
Where a name gives a salt, the structure may show the parent alone. Read-outs that look alike come from different tables or passages of the source.

Key:
[1] = Pharmacokinetics of PEGylated protease inhibitor prodrugs in rats; assay type: in vivo, male Sprague-Dawley rats; parameters: AUCall / AUC: concentration or dose not given beside the values; details: prodrug in plasma; for AUCall / Cmax / AUC: mean ± SD; for concentration at 24 hr: read-out: Cmin(24 hr); for half-life: read-out: t½(z) (converted)
Description: (§1) Pharmacokinetic analysis of protease inhibitors described herein was conducted. To evaluate the pharmacokinetics of PEGylated protease inhibitor conjugates with releasable lipophilic attachments, test compounds were administered to male Sprague-Dawley rats.
(§2) At various times following test article administration, serial blood samples were collected from indwelling jugular vein catheters and transferred to micro-tubes containing 7.5 μL of 20% w/v K2EDTA as an anticoagulant. Following processing of the blood samples to plasma (10 minutes at 10000 rpm, Centrifuge Model: Kubota 3500), plasma concentrations of the test article or corresponding PEGylated molecule released from the test article was measured using LC-MS/MS methods. Pharmacokinetic parameters were estimated using noncompartmental methods.
Table 3 presents a summary of pharmacokinetic parameters of PEGylated protease inhibitor prodrugs, wherein Cmax is the maximum (peak) concentration, AUCall represents the area under the concentration-time curve from zero to time of last concentration value, T½ is half life, and MRTlast is the mean residence time to last observable concentration

[2] = Pharmacokinetics of released PEGylated protease inhibitor following P.O. administration of prodrugs in rats; assay type: in vivo, male Sprague-Dawley rats; parameters: AUCall Mean: concentration or dose not given beside the values; details: rats (n = 4-5)
Description: as §1, §2

[3] = mPEG3-atazanavir in plasma after PO administration of mPEG3-ATV or of the listed prodrug
[4] = mPEG5-atazanavir in plasma after PO administration of mPEG5-ATV or of the listed prodrug
[5] = mPEG6-atazanavir in plasma after PO administration of mPEG6-ATV or of the listed prodrug
[6] = male, Sprague-Dawley, rat, oral
[7] = male, Sprague-Dawley, rat, oral, read-out: Cmax
[8] = male, Sprague-Dawley, rat, in vivo
[9] = male, Sprague-Dawley, rat, in vivo, read-out: Cmax

In the case of `COCCOCCOCCOC(=O)NC(C(=O)NC(Cc1ccccc1)C(CN(Cc1ccc(-c2ccccn2)cc1)NC(=O)C(NC(=O)OC)C(C)(C)C)OC(=O)CCCC(=O)OC1C(O)C(O)OC1C(O)CO)C(C)(C)C` (stereo not shown), the MRTlast [1] is reported as 1.86 ± 1.49 h, the “t½(z)” value [1] is reported as 3.24 ± 3.26 h and the “Cmin(24 hr)” value [1] is reported as 0.177 ± 0.353 ng/mL. For the same compound, the AUCall [1] was 221 ± 57.1 ng·h/mL, the Cmax [1] was 167 ± 89.6 ng/mL and the “AUCall Mean” value [2, 3] was 84.4 ng·h/mL. For the same compound, the “Cmax Mean” value [2, 3] was 3.62 ng/mL, the “MRT last Mean” value [2, 3] was 22.5 h and the “Tmax* Median” value [2, 3] was 0.250 h.

For `CCOC(C)OC(CN(Cc1ccc(-c2ccccn2)cc1)NC(=O)C(NC(=O)OC)C(C)(C)C)C(Cc1ccccc1)NC(=O)C(NC(=O)OCCOCCOCCOC)C(C)(C)C` (mixture of isomers) [1-ethoxyethoxy-mPEG3-Atazanivir, ethoxy ethoxy mPEG3-atazanavir], the MRTlast [1] was 1.62 ± 0.350 h, the “t½(z)” value [1] was 2.01 ± 0.88 h and the “Cmin(24 hr)” value [1] was 0.370 ± 0.455 ng/mL. The AUCall [1] was 3950 ± 2740 ng·h/mL, the Cmax [1] was 1370 ± 549 ng/mL and the “AUCall Mean” value [2, 3] was 500 ng·h/mL. For the same compound, the “Cmax Mean” value [2, 3] was 154 ng/mL, the “MRT last Mean” value [2, 3] was 2.35 h and the “Tmax* Median” value [2, 3] was 0.500 h.

With `CCOC(C)OC(CN(Cc1ccc(-c2ccccn2)cc1)NC(=O)C(NC(=O)OC)C(C)(C)C)C(Cc1ccccc1)NC(=O)C(NC(=O)OCCOCCOCCOCCOCCOC)C(C)(C)C` (mixture of isomers) [1-ethoxyethoxy-mPEG5-Atazanivir, ethoxy ethoxy mPEG5-atazanavir] the MRTlast [1] was 1.80 ± 0.060 h, the “t½(z)” value [1] was 2.14 ± 1.85 h and the “Cmin(24 hr)” value [1] was 0.208 ± 0.416 ng/mL. For the same compound, the AUCall [1] was 4960 ± 1730 ng·h/mL, the Cmax [1] was 1420 ± 595 ng/mL and the “AUCall Mean” value [2, 4] was 329 ng·h/mL. For the same compound, the “Cmax Mean” value [2, 4] was 109 ng/mL, the “MRT last Mean” value [2, 4] was 1.95 h and the “Tmax Median” value [2, 4] was 1.50 h.

For `CCOC(C)OC(CN(Cc1ccc(-c2ccccn2)cc1)NC(=O)C(NC(=O)OC)C(C)(C)C)C(Cc1ccccc1)NC(=O)C(NC(=O)OCCOCCOCCOCCOCCOCCOC)C(C)(C)C` (mixture of isomers) [1-ethoxyethoxy-mPEG6-Atazanivir, ethoxy ethoxy mPEG6-atazanavir], the MRTlast [1] was 2.17 ± 0.340 h, the “t½(z)” value [1] was 2.45 ± 0.630 h and the “Cmin(24 hr)” value [1] was 0.354 ± 0.410 ng/mL. The AUCall [1] was 2200 ± 2000 ng·h/mL, the Cmax [1] was 630 ± 550 ng/mL and the “AUCall Mean” value [2, 5] was 137 ng·h/mL. The “Cmax Mean” value [2, 5] was 28.8 ng/mL, the “MRT last Mean” value [2, 5] was 4.33 h and the “Tmax Median” value [2, 5] was 1.50 h.

For `CCOC(CC)OC(CN(Cc1ccc(-c2ccccn2)cc1)NC(=O)C(NC(=O)OC)C(C)(C)C)C(Cc1ccccc1)NC(=O)C(NC(=O)OCCOCCOCCOC)C(C)(C)C` (mixture of isomers) [1-ethoxypropoxy-mPEG3-Atazanivir, atazanavir-1-ethoxypropoxy-mPEG3], the MRTlast [1] was 2.29 ± 0.280 h, the “t½(z)” value [1] was 1.39 ± 0.210 h and the “Cmin(24 hr)” value [1] was “BLQ”. For the same compound, the AUCall [1] was 8480 ± 1700 ng·h/mL, the Cmax [1] was 2060 ± 260 ng/mL and the “AUCall Mean” value [2, 3] was 849 ng·h/mL. For the same compound, the “Cmax Mean” value [2, 3] was 153 ng/mL, the “MRT last Mean” value [2, 3] was 3.83 h and the “Tmax* Median” value [2, 3] was 1.00 h.

`COCCOCCOCCOCCOCCOC(=O)N[C@@H](C(=O)N[C@@H](Cc1ccccc1)[C@H](CN(Cc1ccc(-c2ccccn2)cc1)NC(=O)[C@H](NC(=O)OC)C(C)(C)C)OC(=O)CCCC(=O)O[C@@H]1[C@@H](O)[C@@H](O)O[C@@H]1[C@H](O)CO)C(C)(C)C` [(5R,10S,11S,14R)-11-benzyl-5,14-di-tert-butyl-3,6,13,16-tetraoxo-8-(4-(pyridin-2-yl)benzyl)-2,17,20,23,26,29,32-heptaoxa-4,7,8,12,15-pentaazatritriacontan-10-yl (2R,3R,4R,5S)-2-((R)-1,2-dihydroxyethyl)-4,5-dihydroxytetrahydrofuran-3-yl glutarate] gave an MRT last [1, 6] of 11.4 ± 7.37 h, a concentration at 24 hr [1, 6] of 2.64 ± 2.87 ng/mL and an AUC [1, 6] of 78.5 ± 78.2 ng·h/mL. The Cmax [1, 7] was 13.1 ± 12.4 ng/mL.

For `COCCOCCOCCOCCOCCOC(=O)NC(C(=O)NC(Cc1ccccc1)C(CN(Cc1ccc(-c2ccccn2)cc1)NC(=O)C(NC(=O)OC)C(C)(C)C)OC(=O)COCCOC(=O)C(Cc1ccccc1)NC(=O)C(N)Cc1ccccc1)C(C)(C)C.Cl` (stereo not drawn) [CME Phe-Phe-mPEG5-Atazanavir HCl, mPEG5-atazanavir-ethoxy-CME-Phe-Phe], the MRTlast [1] was 1.26 h, the “Cmin(24 hr)” value [1] was “BLQ” and the AUCall [1] was 1.22 ng·h/mL. For the same compound, the Cmax [1] was 2.36 ng/mL, the “AUCall Mean” value [2, 4] was 299 ng·h/mL and the “MRT last Mean” value [2, 4] was 23.9 h. The “Tmax Median” value [2, 4] was 24.0 h.

With `COCCOCCOCCOC(=O)NC(C(=O)NC(Cc1ccccc1)C(CN(Cc1ccc(-c2ccccn2)cc1)NC(=O)C(NC(=O)OC)C(C)(C)C)OC(=O)CNC(=O)C(N)CC(C)C)C(C)(C)C.Cl` (stereo not drawn) [Leu-Gly-mPEG3-Atazanavir, Leu-Gly-mPEG3-Atazanavir Hydrochloride] the MRTlast [1] was 0.597 ± 0.376 h, the AUCall [1] was 0.955 ± 1.02 ng·h/mL and the Cmax [1] was 0.833 ± 0.676 ng/mL. The “AUCall Mean” value [2, 3] was 44.9 ng·h/mL, the “Cmax Mean” value [2, 3] was 2.10 ng/mL and the “MRT last Mean” value [2, 3] was 15.9 h. The “Tmax* Median” value [2, 3] was 4.00 h.

In the case of `COCCOCCOCCOCCOCCOC(=O)N[C@H](C(=O)N[C@@H](Cc1ccccc1)[C@H](CN(Cc1ccc(-c2ccccn2)cc1)NC(=O)[C@@H](NC(=O)OC)C(C)(C)C)OC(=O)CNC(=O)[C@@H](N)CC(C)C)C(C)(C)C` [Leu-Gly-mPEG5-Atazanavir HCl, Leu-Gly-mPEG5-Atazanavir Hydrochloride], the MRT last [1, 8] is reported as 2.85 ± 3.68 h, the AUC [1, 8] is reported as 1.53 ± 2.93 ng·h/mL and the Cmax [1, 9] is reported as 0.479 ± 0.572 ng/mL.

Work on `COCCOCCOCCOCCOCCOC(=O)N[C@H](C(=O)N[C@@H](Cc1ccccc1)[C@H](CN(Cc1ccc(-c2ccccn2)cc1)NC(=O)[C@@H](NC(=O)OC)C(C)(C)C)OC(=O)CNC(=O)[C@@H](N)Cc1ccccc1)C(C)(C)C` [Phe-Gly-mPEG5-Atazanavir HCl, Phe-Gly-mPEG5-Atazanavir Hydrochloride] yielded an MRT last [1, 8] of 0.357 ± 0.129 h, an AUC [1, 8] of 0.341 ± 0.313 ng·h/mL and a Cmax [1, 9] of 0.895 ± 0.808 ng/mL.

For `COCCOCCOCCOCCOCCOC(=O)N[C@H](C(=O)N[C@@H](Cc1ccccc1)[C@H](CN(Cc1ccc(-c2ccccn2)cc1)NC(=O)[C@@H](NC(=O)OC)C(C)(C)C)OC(=O)[C@H](CC(C)C)NC(=O)[C@@H](N)Cc1ccccc1)C(C)(C)C` [Phe-Leu-mPEG5-Atazanavir HCl, Phe-Leu-mPEG5-Atazanavir Hydrochloride], the MRT last [1, 8] was 1.46 ± 0.396 h, the AUC [1, 8] was 42.4 ± 11.6 ng·h/mL and the Cmax [1, 9] was 17 ± 4.2 ng/mL. The half-life [1, 8] was 1.52 h and the “Cmin(24 hr)” value [1] was “BLQ”.

Work on `COCCOCCOCCOC(=O)N[C@H](C(=O)N[C@@H](Cc1ccccc1)[C@H](CN(Cc1ccc(-c2ccccn2)cc1)NC(=O)[C@@H](NC(=O)OC)C(C)(C)C)OC(=O)[C@H](Cc1ccccc1)NC(=O)[C@@H](N)Cc1ccccc1)C(C)(C)C` [Phe-Phe-mPEG3-Atazanavir, Phe-Phe-mPEG3-Atazanavir Hydrochloride] yielded an MRT last [1, 8] of 6.27 ± 1.31 h, a concentration at 24 hr [1, 8] of 3.15 ± 0.946 ng/mL and an AUC [1, 8] of 609 ± 157 ng·h/mL. It also gave a Cmax [1, 9] of 112 ± 31.6 ng/mL and a half-life [1, 8] of 8.31 ± 1.21 h.

For `COCCOCCOCCOCCOCCOC(=O)N[C@H](C(=O)N[C@@H](Cc1ccccc1)[C@H](CN(Cc1ccc(-c2ccccn2)cc1)NC(=O)[C@@H](NC(=O)OC)C(C)(C)C)OC(=O)CNC(=O)[C@@H](N)C(C)C)C(C)(C)C` [Val-Gly-mPEG5-Atazanavir HCl, Val-Gly-mPEG5-Atazanavir Hydrochloride], the MRT last [1, 8] was 0.779 ± 0.513 h, the AUC [1, 8] was 14.9 ± 18.7 ng·h/mL and the Cmax [1, 9] was 33.7 ± 53.9 ng/mL. It also gave a half-life [1, 8] of 2.95 h.

For `COCCOCCOCCOC(=O)N[C@H](C(=O)N[C@@H](Cc1ccccc1)[C@H](CN(Cc1ccc(-c2ccccn2)cc1)NC(=O)[C@@H](NC(=O)OC)C(C)(C)C)OC(=O)[C@H](Cc1ccccc1)NC(=O)[C@@H](N)C(C)C)C(C)(C)C` [Val-Phe-mPEG3-Atazanavir, Val-Phe-mPEG3-Atazanavir Hydrochloride], the MRT last [1, 8] was 1.68 ± 0.297 h, the AUC [1, 8] was 700 ± 361 ng·h/mL and the Cmax [1, 9] was 334 ± 133 ng/mL. It also gave a half-life [1, 8] of 2.25 ± 1.28 h.

Work on `COCCOCCOCCOCCOCCOC(=O)N[C@H](C(=O)N[C@@H](Cc1ccccc1)[C@H](CN(Cc1ccc(-c2ccccn2)cc1)NC(=O)[C@@H](NC(=O)OC)C(C)(C)C)OC(=O)[C@@H](N)CC(C)C)C(C)(C)C` [mPEG5-Atazanavir-L-Leucine] yielded an MRT last [1, 6] of 1.71 ± 0.327 h, an AUC [1, 6] of 487 ± 348 ng·h/mL and a Cmax [1, 7] of 191 ± 85.6 ng/mL. It also gave a half-life [1, 6] of 2.37 ± 2.19 h.
